Laboratory results taken from patent US20230000813A1, “COMPOUND FOR THE TREATMENT OF BOVINE OR SWINE RESPIRATORY DISEASE” (Intervet Inc., priority 2016, published 2023).
Read-outs that look alike come from different tables or passages of the source.

What was measured:
Type in all cases: cell-based
[1] = test system: Mannheimia haemolytica MH 10720 (154, BRD field isolate); assay: MIC, broth-microdilution (CLSI VET01-A4); settings: strain MH 10720
Outline: (§1)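 Visual no-turbidity endpoint over twofold compound dilutions in microdilution trays, interpreted according to CLSI VET01-S3.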

[2] = test system: Mannheimia haemolytica MH 12587 (1071, BRD field isolate, macrolide-resistance: erm+, E+); assay: MIC, broth-microdilution (CLSI VET01-A4); settings: Mannheimia haemolytica MH 12587, macrolide-resistant
Outline: as §1

[3] = test system: Mannheimia haemolytica MH 6357 (M7/2, reference strain, cattle infection strain); assay: MIC, broth-microdilution (CLSI VET01-A4)
Outline: as §1

[4] = test system: Mannheimia haemolytica MH 6374 (ATCC 33396, reference strain); assay: MIC, broth-microdilution (CLSI VET01-A4)
Outline: as §1

[5] = test system: Pasteurella multocida PM 10775 (080130003051, BRD field isolate); assay: MIC, broth-microdilution (CLSI VET01-A4); settings: strain PM 10775
Outline: as §1

[6] = test system: Pasteurella multocida PM 12080 (IV102277-0093, BRD field isolate); assay: MIC, broth-microdilution (CLSI VET01-A4)
Outline: as §1

[7] = test system: Pasteurella multocida PM 6267 (P 2225 (L386), reference strain, mouse infection strain); assay: MIC, broth-microdilution (CLSI VET01-A4)
Outline: as §1

[8] = test system: Pasteurella multocida PM 6391 (ATCC 43137, reference strain); assay: MIC, broth-microdilution (CLSI VET01-A4)
Outline: as §1

[9] = test system: Mannheimia haemolytica MH 13093 (XB0472-6014.1, BRD field isolate); assay: MIC, broth-microdilution (CLSI VET01-A4)
Outline: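 Broth microdilution per CLSI VET01-A4 using doubling dilution series of compound. MIC taken as the lowest concentration with no turbidity visible to the unaided eye, interpreted per CLSI VET01-S3.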

[10] = test system: Acinetobacter baumanii AB 15919 (IV369-2012, dermatitis field isolate); assay: MIC, broth-microdilution (CLSI VET01-A4); settings: strain AB 15919
Method: (§2) The Minimum inhibitory concentrations (MIC) of compounds according to the invention were determined by the broth-microdilution method according to CLSI document VET01-A4.
(§3) Microdilution trays containing a doubling dilution series of the test compound were used for the tests.
(§4) The MIC results were interpreted according to the CLSI documents VET01-S3. The lowest concentration of compound at which no visible growth (i.e. no turbidity) detected by the unaided eye was recorded as the MIC.

[11] = test system: Acinetobacter baumanii AB 16496 (ATCC 19606, reference strain); assay: MIC, broth-microdilution (CLSI VET01-A4); settings: strain AB 16496
Method: as §2, §3, §4

[12] = test system: Mannheimia haemolytica MH 12180 (KLI-02944, BRD field isolate); assay: MIC, broth-microdilution (CLSI VET01-A4); settings: strain MH 12180
Method: as §2, §3, §4

[13] = test system: Pasteurella multocida PM 14426 (0006-439, BRD field isolate, macrolide-resistant); assay: MIC, broth-microdilution (CLSI VET01-A4); settings: strain PM 14426, macrolide-resistant
Method: as §2, §3, §4

[14] = test system: Staphylococcus aureus SA 5816 (2139, mastitis field isolate); assay: MIC, broth-microdilution (CLSI VET01-A4); settings: strain SA 5816
Method: as §2, §3, §4

[15] = test system: Staphylococcus aureus SA 6114 (ATCC 29213, reference strain); assay: MIC, broth-microdilution (CLSI VET01-A4); settings: strain SA 6114
Method: as §2, §3, §4

[16] = test system: 20 isolates of Actinobacillus (A.) pleuropneumoniae; assay: MIC50/MIC90, broth-microdilution, European respiratory tract isolates
Method: (§5) The in vitro activity of compounds against 20 isolates of Actinobacillus (A.) pleuropneumoniae, 20 of Bordetella (B.) bronchiseptica, 20 of Histophilus (H.) somni, 40 of Mannheimia (M.) haemolytica and 40 of Pasteurella (P.) multocida collected in different European countries were determined. All bacteria were isolated from the respiratory tract of swine and cattle suffering from respiratory disease. All isolates were epidemiologically unrelated as specified by the different suppliers.
(§6) The minimum inhibitory concentrations (MIC) of compounds according to the invention were determined by the broth-microdilution method according to CLSI document VET01-A4.
(§7) Microdilution trays containing a doubling dilution series of the test compounds were used for the tests.
as §4

[17] = test system: 20 isolates of Bordetella (B.) bronchiseptica; assay: as above
Method: as §5, §6, §7, §4

[18] = test system: 20 isolates of Histophilus (H.) somni; assay: as above
Method: as §5, §6, §7, §4

[19] = test system: 40 isolates of Mannheimia (M.) haemolytica; assay: as above
Method: as §5, §6, §7, §4

[20] = test system: 40 isolates of Pasteurella (P.) multocida; assay: as above
Method: as §5, §6, §7, §4

[21] = test system: 15 isolates of H. parasuis; assay: MIC50/MIC90, agar-dilution method (GC agar base); settings: Haemophilus parasuis
Method: The in vitro activity of 3 representative compounds of this invention against 15 isolates of H. parasuis was determined. All strains were isolated from the respiratory tract of swine in different European countries The MICs for all isolates were determined by using the agar-dilution method according to CLSI document VET01-A4 [1]with the following modification: GC agar base was used instead of Mueller-Hinton agar base for the preparation of the agar-dilution plates. Results were interpreted according to the CLSI document VET01-S3.

C[C@@H](O)[C@H](NC(=O)c1ccc(C#Cc2ccc(CNCC(F)(F)F)cc2)cc1)C(=O)NO [C. 467]
0.063 µg/mL: MIC ([4]; strain MH 6374) | MIC90 [16] | MIC90 [19]
0.032 µg/mL: MIC ([7]; strain PM 6267) | MIC ([8]; strain PM 6391) | MIC [12] | MIC50 [16] | MIC50 [19]
0.25 µg/mL: MIC90 [21]
<=0.1 μM: MIC MH 6357 ([3]; Mannheimia haemolytica MH 6357) | MIC PM 12080 ([6]; Pasteurella multocida PM 12080) | MIC PM 6267 ([7]; Pasteurella multocida PM 6267) | MIC PM 6391 ([8]; Pasteurella multocida PM 6391)
0.125 µg/mL: MIC ([3]; strain MH 6357) | MIC50 [21]
0.2 µM: MIC ([4]; Mannheimia haemolytica MH 6374, read-out: MIC MH 6374)
≤0.016 µg/mL: MIC [1] | MIC [5] | MIC ([6]; strain PM 12080) | MIC [13] | MIC50 [18] | MIC90 [18] | MIC50 [20] | MIC90 [20]
0.4 µM: MIC MH 12587 [2] | MIC [9]
2 µg/mL: MIC50 [17] | MIC90 [17]
>16 µg/mL: MIC [10] | MIC [11] | MIC [14] | MIC [15]
